The source made the active and inactive calls. Cut-off read from the data, not from the text of the source, for most assays here: actives have a measured Kd and inactives only a lower limit.
The compounds below were run against Calcium/calmodulin-dependent protein kinase type II subunit delta (Homo sapiens, UniProt Q13557).
Calcium/calmodulin-dependent protein kinase type II subunit delta, sequence (Q13557 whole entry): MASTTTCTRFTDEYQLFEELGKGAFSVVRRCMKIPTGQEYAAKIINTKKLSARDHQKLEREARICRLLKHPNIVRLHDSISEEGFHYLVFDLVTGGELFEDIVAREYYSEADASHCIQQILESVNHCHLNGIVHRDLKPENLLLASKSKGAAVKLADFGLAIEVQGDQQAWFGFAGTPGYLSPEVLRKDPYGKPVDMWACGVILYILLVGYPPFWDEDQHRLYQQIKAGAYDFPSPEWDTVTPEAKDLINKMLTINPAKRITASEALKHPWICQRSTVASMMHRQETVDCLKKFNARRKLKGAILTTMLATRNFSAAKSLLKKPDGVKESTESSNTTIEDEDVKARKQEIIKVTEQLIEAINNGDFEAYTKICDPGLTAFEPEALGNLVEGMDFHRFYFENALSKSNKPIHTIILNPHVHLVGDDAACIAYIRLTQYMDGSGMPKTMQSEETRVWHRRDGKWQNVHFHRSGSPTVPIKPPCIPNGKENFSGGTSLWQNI
In the case of `C[C@@H]1CN(Cc2ccc(F)cc2)[C@@H](C)CN1C(=O)c1cc2c(C(=O)C(=O)N(C)C)cn(C)c2cc1Cl` [TALMAPIMOD], the Kd is reported as > 30 µM (inactive). For `CN1CCC(COc2cnc(-c3cccc(Cn4nc(-c5cccc(C#N)c5)ccc4=O)c3)nc2)CC1` [TEPOTINIB], the Kd was > 30 µM (inactive). `O=c1sn(-c2cccc3ccccc23)c(=O)n1Cc1ccccc1` [TIDEGLUSIB] was tested, and the Kd was > 30 µM (inactive). For `COc1cc2nccc(Oc3ccc(NC(=O)Nc4cc(C)on4)c(Cl)c3)c2cc1OC` [TIVOZANIB], the Kd was > 30 µM (inactive).

What follows are compounds tested against T1, Cysteine--tRNA ligase, cytoplasmic (Homo sapiens, UniProt P49589).
T1 sequence (P49589 whole entry): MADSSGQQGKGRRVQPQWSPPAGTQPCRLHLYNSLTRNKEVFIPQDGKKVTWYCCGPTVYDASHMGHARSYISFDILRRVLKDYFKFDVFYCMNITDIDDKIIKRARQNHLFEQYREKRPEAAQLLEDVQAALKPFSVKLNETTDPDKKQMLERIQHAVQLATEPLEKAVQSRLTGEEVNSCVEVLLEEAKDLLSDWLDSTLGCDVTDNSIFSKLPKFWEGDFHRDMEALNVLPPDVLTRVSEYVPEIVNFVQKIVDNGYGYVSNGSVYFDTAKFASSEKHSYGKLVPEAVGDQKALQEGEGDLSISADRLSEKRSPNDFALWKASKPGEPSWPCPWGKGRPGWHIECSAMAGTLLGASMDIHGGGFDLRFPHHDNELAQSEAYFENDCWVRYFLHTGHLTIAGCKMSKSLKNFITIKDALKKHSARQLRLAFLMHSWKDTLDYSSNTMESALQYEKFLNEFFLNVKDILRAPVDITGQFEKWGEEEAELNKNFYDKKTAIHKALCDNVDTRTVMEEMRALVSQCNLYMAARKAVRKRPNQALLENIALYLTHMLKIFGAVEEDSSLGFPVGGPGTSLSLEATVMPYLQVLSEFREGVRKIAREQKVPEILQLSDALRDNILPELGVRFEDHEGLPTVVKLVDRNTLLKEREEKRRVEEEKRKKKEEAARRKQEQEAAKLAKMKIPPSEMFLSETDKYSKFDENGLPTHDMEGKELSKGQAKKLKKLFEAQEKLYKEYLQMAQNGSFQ
For `C[C@@H]1CN(Cc2ccc(F)cc2)[C@@H](C)CN1C(=O)c1cc2c(C(=O)C(=O)N(C)C)cn(C)c2cc1Cl` [TALMAPIMOD], the Kd was > 30 µM (inactive). In the case of `CN1CCC(COc2cnc(-c3cccc(Cn4nc(-c5cccc(C#N)c5)ccc4=O)c3)nc2)CC1` [TEPOTINIB], the Kd is reported as > 30 µM (inactive). For `O=c1sn(-c2cccc3ccccc23)c(=O)n1Cc1ccccc1` [TIDEGLUSIB], the Kd was > 30 µM (inactive). For `COc1cc2nccc(Oc3ccc(NC(=O)Nc4cc(C)on4)c(Cl)c3)c2cc1OC` [TIVOZANIB], the Kd was > 30 µM (inactive).

These compounds were tested against Casein kinase I isoform alpha (Homo sapiens, UniProt P48729).
Casein kinase I isoform alpha, sequence (P48729 whole entry, canonical isoform): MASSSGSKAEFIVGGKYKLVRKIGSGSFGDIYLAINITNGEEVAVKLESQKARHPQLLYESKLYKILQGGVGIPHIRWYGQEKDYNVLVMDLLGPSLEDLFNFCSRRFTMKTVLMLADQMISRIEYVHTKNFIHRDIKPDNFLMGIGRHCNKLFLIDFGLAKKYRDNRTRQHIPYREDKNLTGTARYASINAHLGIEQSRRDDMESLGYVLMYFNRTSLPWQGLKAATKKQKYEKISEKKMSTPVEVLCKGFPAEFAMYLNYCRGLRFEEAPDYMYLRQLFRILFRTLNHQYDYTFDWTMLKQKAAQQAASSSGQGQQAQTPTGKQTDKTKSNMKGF
In the case of `C[C@@H]1CN(Cc2ccc(F)cc2)[C@@H](C)CN1C(=O)c1cc2c(C(=O)C(=O)N(C)C)cn(C)c2cc1Cl` [TALMAPIMOD], the Kd is reported as > 30 µM (inactive). In the case of `CN1CCC(COc2cnc(-c3cccc(Cn4nc(-c5cccc(C#N)c5)ccc4=O)c3)nc2)CC1` [TEPOTINIB], the Kd is reported as > 30 µM (inactive). In the case of `O=c1sn(-c2cccc3ccccc23)c(=O)n1Cc1ccccc1` [TIDEGLUSIB], the Kd is reported as > 30 µM (inactive). `COc1cc2nccc(Oc3ccc(NC(=O)Nc4cc(C)on4)c(Cl)c3)c2cc1OC` [TIVOZANIB] was tested, and the Kd was > 30 µM (inactive).

The compounds below were run against Casein kinase I isoform gamma-1 (Homo sapiens, UniProt Q9HCP0).
Casein kinase I isoform gamma-1, sequence (Q9HCP0 whole entry, canonical isoform): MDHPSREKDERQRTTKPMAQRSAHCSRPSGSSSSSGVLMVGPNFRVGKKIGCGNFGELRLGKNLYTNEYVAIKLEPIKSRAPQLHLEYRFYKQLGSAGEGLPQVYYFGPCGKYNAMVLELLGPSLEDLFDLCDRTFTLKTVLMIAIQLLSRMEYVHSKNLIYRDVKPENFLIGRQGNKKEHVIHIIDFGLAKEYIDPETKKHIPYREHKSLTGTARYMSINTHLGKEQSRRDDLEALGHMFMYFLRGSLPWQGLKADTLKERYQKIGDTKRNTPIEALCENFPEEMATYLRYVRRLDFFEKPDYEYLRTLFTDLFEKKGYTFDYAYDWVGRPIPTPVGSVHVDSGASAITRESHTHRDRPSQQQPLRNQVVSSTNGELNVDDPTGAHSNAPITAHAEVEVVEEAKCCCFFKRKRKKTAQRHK
`C[C@@H]1CN(Cc2ccc(F)cc2)[C@@H](C)CN1C(=O)c1cc2c(C(=O)C(=O)N(C)C)cn(C)c2cc1Cl` [TALMAPIMOD] was tested, and the Kd was > 30 µM (inactive). With `CN1CCC(COc2cnc(-c3cccc(Cn4nc(-c5cccc(C#N)c5)ccc4=O)c3)nc2)CC1` [TEPOTINIB] the Kd was > 30 µM (inactive). `O=c1sn(-c2cccc3ccccc23)c(=O)n1Cc1ccccc1` [TIDEGLUSIB] was tested, and the Kd was > 30 µM (inactive). For `COc1cc2nccc(Oc3ccc(NC(=O)Nc4cc(C)on4)c(Cl)c3)c2cc1OC` [TIVOZANIB], the Kd was > 30 µM (inactive).

What follows are compounds tested against T2, dCTP pyrophosphatase 1 (Homo sapiens, UniProt Q9H773).
T2 sequence (Q9H773 whole entry): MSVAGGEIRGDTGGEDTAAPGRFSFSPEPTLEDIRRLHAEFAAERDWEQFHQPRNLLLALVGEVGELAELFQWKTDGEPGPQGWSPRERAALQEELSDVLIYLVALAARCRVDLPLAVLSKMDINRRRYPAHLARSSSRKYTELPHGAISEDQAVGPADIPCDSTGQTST
With `C[C@@H]1CN(Cc2ccc(F)cc2)[C@@H](C)CN1C(=O)c1cc2c(C(=O)C(=O)N(C)C)cn(C)c2cc1Cl` [TALMAPIMOD] the Kd was > 30 µM (inactive). With `CN1CCC(COc2cnc(-c3cccc(Cn4nc(-c5cccc(C#N)c5)ccc4=O)c3)nc2)CC1` [TEPOTINIB] the Kd was > 30 µM (inactive). With `O=c1sn(-c2cccc3ccccc23)c(=O)n1Cc1ccccc1` [TIDEGLUSIB] the Kd was > 30 µM (inactive). `COc1cc2nccc(Oc3ccc(NC(=O)Nc4cc(C)on4)c(Cl)c3)c2cc1OC` [TIVOZANIB] was tested, and the Kd was > 30 µM (inactive).

These compounds were tested against T3, Discoidin domain-containing receptor 2 (Homo sapiens, UniProt Q16832).
T3 sequence (Q16832 whole entry): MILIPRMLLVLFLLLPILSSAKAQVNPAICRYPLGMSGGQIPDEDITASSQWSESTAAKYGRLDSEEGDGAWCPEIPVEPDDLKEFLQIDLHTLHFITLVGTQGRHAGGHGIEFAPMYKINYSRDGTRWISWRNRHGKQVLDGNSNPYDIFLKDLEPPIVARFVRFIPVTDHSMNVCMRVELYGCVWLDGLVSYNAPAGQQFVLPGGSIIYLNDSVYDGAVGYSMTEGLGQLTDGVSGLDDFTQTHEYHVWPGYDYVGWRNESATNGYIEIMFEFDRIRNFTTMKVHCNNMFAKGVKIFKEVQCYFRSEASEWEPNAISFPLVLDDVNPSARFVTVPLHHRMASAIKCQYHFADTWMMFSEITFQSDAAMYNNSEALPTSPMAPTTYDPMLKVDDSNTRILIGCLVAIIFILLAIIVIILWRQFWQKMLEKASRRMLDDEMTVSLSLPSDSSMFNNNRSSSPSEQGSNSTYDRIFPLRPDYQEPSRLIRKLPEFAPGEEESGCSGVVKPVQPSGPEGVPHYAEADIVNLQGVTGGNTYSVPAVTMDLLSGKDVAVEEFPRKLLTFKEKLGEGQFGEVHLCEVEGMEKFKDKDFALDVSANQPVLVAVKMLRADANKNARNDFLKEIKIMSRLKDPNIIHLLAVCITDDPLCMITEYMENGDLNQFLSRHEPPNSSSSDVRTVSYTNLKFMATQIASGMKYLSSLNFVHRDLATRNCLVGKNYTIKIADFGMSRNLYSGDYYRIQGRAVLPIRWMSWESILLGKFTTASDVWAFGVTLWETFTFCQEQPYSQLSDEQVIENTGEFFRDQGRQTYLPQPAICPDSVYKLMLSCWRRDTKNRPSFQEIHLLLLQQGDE
`C[C@@H]1CN(Cc2ccc(F)cc2)[C@@H](C)CN1C(=O)c1cc2c(C(=O)C(=O)N(C)C)cn(C)c2cc1Cl` [TALMAPIMOD] was tested, and the Kd was > 30 µM (inactive). `CN1CCC(COc2cnc(-c3cccc(Cn4nc(-c5cccc(C#N)c5)ccc4=O)c3)nc2)CC1` [TEPOTINIB] was tested, and the Kd was > 30 µM (inactive). For `O=c1sn(-c2cccc3ccccc23)c(=O)n1Cc1ccccc1` [TIDEGLUSIB], the Kd was > 30 µM (inactive). With `COc1cc2nccc(Oc3ccc(NC(=O)Nc4cc(C)on4)c(Cl)c3)c2cc1OC` [TIVOZANIB] the Kd was 0.592 µM (active).

Each compound was assayed against Glycogen synthase kinase-3 alpha (Homo sapiens, UniProt P49840).
Glycogen synthase kinase-3 alpha, sequence (P49840 whole entry): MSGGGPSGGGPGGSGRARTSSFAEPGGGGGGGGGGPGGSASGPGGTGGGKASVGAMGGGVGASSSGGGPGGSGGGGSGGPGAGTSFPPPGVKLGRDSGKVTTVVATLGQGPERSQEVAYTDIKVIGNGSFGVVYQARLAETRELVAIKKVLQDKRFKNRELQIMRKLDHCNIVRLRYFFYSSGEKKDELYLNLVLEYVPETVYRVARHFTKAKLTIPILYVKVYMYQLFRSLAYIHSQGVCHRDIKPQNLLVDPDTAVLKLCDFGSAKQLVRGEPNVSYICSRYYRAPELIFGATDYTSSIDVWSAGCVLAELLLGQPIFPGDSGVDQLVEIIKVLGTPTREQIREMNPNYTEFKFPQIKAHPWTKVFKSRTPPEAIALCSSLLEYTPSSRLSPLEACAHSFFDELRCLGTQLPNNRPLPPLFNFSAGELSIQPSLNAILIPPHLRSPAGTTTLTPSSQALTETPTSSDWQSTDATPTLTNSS
`C[C@@H]1CN(Cc2ccc(F)cc2)[C@@H](C)CN1C(=O)c1cc2c(C(=O)C(=O)N(C)C)cn(C)c2cc1Cl` [TALMAPIMOD] was tested, and the Kd was > 30 µM (inactive). With `CN1CCC(COc2cnc(-c3cccc(Cn4nc(-c5cccc(C#N)c5)ccc4=O)c3)nc2)CC1` [TEPOTINIB] the Kd was > 30 µM (inactive). For `O=c1sn(-c2cccc3ccccc23)c(=O)n1Cc1ccccc1` [TIDEGLUSIB], the Kd was > 30 µM (inactive). In the case of `COc1cc2nccc(Oc3ccc(NC(=O)Nc4cc(C)on4)c(Cl)c3)c2cc1OC` [TIVOZANIB], the Kd is reported as > 30 µM (inactive).

Each compound was assayed against Ribosomal protein S6 kinase alpha-6 (Homo sapiens, UniProt Q9UK32).
Ribosomal protein S6 kinase alpha-6, sequence (Q9UK32 whole entry): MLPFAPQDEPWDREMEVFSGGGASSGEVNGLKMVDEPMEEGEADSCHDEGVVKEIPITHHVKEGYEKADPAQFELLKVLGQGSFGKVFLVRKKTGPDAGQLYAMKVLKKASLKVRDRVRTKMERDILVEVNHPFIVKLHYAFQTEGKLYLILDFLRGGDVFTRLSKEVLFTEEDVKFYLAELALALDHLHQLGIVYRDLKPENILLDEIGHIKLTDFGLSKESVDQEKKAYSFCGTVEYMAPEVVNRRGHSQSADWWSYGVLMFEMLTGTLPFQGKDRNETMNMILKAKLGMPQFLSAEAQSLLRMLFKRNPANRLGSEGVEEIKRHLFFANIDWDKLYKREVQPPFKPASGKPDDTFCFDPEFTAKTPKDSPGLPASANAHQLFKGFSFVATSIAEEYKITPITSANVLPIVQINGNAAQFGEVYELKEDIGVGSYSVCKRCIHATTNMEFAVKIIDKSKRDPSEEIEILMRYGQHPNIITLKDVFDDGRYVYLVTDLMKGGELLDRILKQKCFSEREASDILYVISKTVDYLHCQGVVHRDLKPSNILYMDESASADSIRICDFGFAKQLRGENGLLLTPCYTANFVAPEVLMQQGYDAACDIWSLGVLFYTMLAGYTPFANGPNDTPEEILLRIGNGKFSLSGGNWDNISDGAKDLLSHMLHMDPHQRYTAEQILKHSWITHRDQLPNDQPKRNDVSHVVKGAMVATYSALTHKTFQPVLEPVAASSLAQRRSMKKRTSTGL
For `C[C@@H]1CN(Cc2ccc(F)cc2)[C@@H](C)CN1C(=O)c1cc2c(C(=O)C(=O)N(C)C)cn(C)c2cc1Cl` [TALMAPIMOD], the Kd was > 30 µM (inactive). With `CN1CCC(COc2cnc(-c3cccc(Cn4nc(-c5cccc(C#N)c5)ccc4=O)c3)nc2)CC1` [TEPOTINIB] the Kd was > 30 µM (inactive). `O=c1sn(-c2cccc3ccccc23)c(=O)n1Cc1ccccc1` [TIDEGLUSIB] was tested, and the Kd was > 30 µM (inactive). For `COc1cc2nccc(Oc3ccc(NC(=O)Nc4cc(C)on4)c(Cl)c3)c2cc1OC` [TIVOZANIB], the Kd was > 30 µM (inactive).

Each compound was assayed against T4, Serine/threonine-protein kinase TAO3 (Homo sapiens, UniProt Q9H2K8).
T4 sequence (Q9H2K8 whole entry): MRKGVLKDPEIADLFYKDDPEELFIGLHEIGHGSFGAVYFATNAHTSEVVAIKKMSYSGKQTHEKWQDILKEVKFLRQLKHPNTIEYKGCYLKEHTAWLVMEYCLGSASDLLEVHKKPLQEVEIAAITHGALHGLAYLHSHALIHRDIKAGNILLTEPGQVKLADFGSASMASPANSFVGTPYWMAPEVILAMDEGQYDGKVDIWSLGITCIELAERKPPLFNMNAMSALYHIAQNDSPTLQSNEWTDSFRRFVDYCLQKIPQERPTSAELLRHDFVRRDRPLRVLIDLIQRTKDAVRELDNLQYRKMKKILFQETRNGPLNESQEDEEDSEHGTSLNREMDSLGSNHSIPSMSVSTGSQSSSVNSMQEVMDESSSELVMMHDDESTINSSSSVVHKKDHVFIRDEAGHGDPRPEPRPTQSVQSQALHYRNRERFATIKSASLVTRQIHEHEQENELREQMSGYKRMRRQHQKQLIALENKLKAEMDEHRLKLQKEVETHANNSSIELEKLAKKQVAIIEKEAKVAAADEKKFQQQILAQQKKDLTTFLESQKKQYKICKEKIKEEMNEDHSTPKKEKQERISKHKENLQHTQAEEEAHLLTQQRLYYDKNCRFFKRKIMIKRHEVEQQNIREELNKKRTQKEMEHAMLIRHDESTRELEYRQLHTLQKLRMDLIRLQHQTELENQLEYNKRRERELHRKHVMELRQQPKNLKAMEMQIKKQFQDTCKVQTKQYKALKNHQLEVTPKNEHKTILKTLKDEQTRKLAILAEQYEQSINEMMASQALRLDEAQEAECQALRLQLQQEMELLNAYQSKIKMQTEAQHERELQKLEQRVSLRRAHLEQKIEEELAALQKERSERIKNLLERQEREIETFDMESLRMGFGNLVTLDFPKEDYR
`C[C@@H]1CN(Cc2ccc(F)cc2)[C@@H](C)CN1C(=O)c1cc2c(C(=O)C(=O)N(C)C)cn(C)c2cc1Cl` [TALMAPIMOD] was tested, and the Kd was > 30 µM (inactive). `CN1CCC(COc2cnc(-c3cccc(Cn4nc(-c5cccc(C#N)c5)ccc4=O)c3)nc2)CC1` [TEPOTINIB] was tested, and the Kd was > 30 µM (inactive). `O=c1sn(-c2cccc3ccccc23)c(=O)n1Cc1ccccc1` [TIDEGLUSIB] was tested, and the Kd was > 30 µM (inactive). In the case of `COc1cc2nccc(Oc3ccc(NC(=O)Nc4cc(C)on4)c(Cl)c3)c2cc1OC` [TIVOZANIB], the Kd is reported as > 30 µM (inactive).

Source: ChEMBL document CHEMBL3991601, “The target landscape of clinical kinase drugs” (Science, 2017)
Note: in the data inactive means no Kd found up to 30 µM.
